Experimental data taken from patent US10023575B2, “Cyclic ether derivatives of pyrazolo[1,5-a]pyrimidine-3-carboxyamide” (Boehringer Ingelheim International GmbH, priority 2015, dated 2018).
Like-named read-outs stand apart in the source and are kept apart here. Blank lines part the entries; values can stand above or below the compound they belong to.

What was measured:
PDE 2A = PDE 2A (Homo sapiens (Human), UniProt O00408); assay: Phosphodiesterase (PDE) 2A assay with fluorescent substrate (IMAP, fluorescence polarization); format: biochemical; conditions: labeled cAMP 30 nM, read-out: PDE2 IC50
Sequence of PDE 2A (O00408 whole entry, species assumed): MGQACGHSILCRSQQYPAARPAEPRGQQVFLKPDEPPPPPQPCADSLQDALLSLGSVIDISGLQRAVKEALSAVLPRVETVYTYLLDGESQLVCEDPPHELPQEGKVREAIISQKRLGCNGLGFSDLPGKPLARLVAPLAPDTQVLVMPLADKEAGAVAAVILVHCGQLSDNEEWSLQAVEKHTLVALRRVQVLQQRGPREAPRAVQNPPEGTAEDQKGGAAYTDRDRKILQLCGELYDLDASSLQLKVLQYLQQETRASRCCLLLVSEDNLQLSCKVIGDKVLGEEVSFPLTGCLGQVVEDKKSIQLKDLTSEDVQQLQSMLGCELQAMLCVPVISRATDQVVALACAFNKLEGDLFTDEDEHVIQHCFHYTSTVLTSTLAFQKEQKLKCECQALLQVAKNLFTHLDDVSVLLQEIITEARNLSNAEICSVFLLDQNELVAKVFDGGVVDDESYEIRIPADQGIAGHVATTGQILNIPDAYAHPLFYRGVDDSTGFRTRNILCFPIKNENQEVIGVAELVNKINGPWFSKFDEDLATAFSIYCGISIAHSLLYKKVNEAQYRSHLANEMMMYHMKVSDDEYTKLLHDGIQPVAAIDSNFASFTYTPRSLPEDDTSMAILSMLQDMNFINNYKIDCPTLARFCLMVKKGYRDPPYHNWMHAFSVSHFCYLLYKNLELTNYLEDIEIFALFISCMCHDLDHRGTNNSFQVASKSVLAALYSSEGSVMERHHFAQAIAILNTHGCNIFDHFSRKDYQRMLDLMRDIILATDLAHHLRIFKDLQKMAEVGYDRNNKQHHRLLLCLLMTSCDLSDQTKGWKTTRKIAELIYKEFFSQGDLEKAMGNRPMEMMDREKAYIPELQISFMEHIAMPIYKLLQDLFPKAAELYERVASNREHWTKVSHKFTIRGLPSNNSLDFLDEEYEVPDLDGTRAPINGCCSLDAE
Experimental: (§1) The PDE reaction cleaves cAMP to AMP. The IMAP system (Molecular Device) using fluorescence polarization (FP) as detection principle was used to measure enzyme activity. A fluorescent labeled cAMP was used as substrate for the reaction, generating a labeled AMP. The fluorescent AMP binds specifically to the large M(III)-based nano-particles which reduces the rotational speed of the substrate and thus increases its polarization.
(§2) The inhibition of PDE 2A or 10 enzyme activity was assessed using IMAP-Phosphodiesterase-cAMP fluorescence labeled substrate (Molecular Devices, Order No. R7506), IMAP TR-FRET screening express (Molecular Devices, Order No. R8160, the TR-FRET component will not be used) and PDE 2A or PDE10 protein expressed upon baculovirus infection in SF9 cells. The cells were incubated after infection for ˜3 days and protein production was confirmed by Western Blot. The cells were collected by centrifugation and the pellet frozen in liquid nitrogen before it was resuspended in PBS containing 1% Triton X-100 and protease inhibitors. After 45 min incubation on ice, the cell debris was removed by centrifugation (13.000 rpm, 30 min).
(§3) All reactions were performed in 384 well plates, Perkin Elmer black optiplates and IMAP reaction buffer with 0.1% Tween20 (kit component)
(§4) Compounds were serial diluted in DMSO. With an intermediate dilution step with reaction buffer DMSO concentration was reduced to achieve 1% DMSO in the assay reaction. Setup of the assay started with 10 μl enzyme (˜10 ng/well, depending on prep. batch), 5 μl compound, reaction was started by addition of 5 μl labeled cAMP (30 nM, final concentration), immediately mixed for 15 seconds on a Eppendorf mixmate (2000 rpm) followed by an incubation at room temperature for 90 minutes in the dark. Reaction is stopped by adding of 60 μl binding buffer for FP/cAMP (kit component).
(§5) Each assay plate contained wells with vehicle controls (1% DMSO) for the measurement of non-inhibited reaction (=100% control) and wells without enzyme as 0% controls.

PDE10 = PDE10 (Homo sapiens (Human), UniProt Q9Y233); assay: Phosphodiesterase (PDE) 10 assay with fluorescent substrate (IMAP, fluorescence polarization); format: biochemical; conditions: labeled cAMP 30 nM
Sequence of PDE10 (Q9Y233 whole entry): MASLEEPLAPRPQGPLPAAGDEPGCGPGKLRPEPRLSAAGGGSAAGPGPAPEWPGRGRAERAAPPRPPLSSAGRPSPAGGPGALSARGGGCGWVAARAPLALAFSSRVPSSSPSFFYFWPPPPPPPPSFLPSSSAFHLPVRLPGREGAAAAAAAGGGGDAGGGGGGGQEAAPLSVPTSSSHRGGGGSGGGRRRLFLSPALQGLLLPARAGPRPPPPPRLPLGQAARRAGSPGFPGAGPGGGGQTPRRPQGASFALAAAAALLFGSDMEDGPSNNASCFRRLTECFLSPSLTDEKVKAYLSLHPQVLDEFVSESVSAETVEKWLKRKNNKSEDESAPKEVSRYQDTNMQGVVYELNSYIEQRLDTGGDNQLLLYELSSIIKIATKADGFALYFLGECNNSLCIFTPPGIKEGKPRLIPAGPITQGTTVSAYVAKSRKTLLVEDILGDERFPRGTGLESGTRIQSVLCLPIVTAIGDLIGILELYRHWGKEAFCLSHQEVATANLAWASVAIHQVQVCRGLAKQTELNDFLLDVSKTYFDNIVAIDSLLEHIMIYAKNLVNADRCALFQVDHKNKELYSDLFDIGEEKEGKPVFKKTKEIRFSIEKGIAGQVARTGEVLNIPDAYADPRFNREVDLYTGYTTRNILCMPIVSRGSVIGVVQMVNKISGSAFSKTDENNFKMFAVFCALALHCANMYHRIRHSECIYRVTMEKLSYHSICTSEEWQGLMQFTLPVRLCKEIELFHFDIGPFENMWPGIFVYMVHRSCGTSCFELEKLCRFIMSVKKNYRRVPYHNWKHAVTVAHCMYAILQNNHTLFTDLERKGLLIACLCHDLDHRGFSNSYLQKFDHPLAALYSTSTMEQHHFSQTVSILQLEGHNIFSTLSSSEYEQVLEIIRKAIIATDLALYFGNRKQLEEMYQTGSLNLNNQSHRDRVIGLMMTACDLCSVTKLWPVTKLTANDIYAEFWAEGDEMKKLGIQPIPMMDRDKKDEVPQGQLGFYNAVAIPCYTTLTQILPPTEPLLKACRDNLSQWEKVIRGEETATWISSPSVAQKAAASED
Experimental: as §1, §2, §3, §4, §5

[1] = In-vivo effect: animal experiments and sample analysis (plasma, brain, CSF concentration); conditions: rat, 0.5 h between administration and CSF sampling; for concentration at 0.5 h: doses of 10.0 or 5 μmol/kg
Experimental: In-Vivo Effect: Animal Experiments and Sample Analysis (CSF):
CSF samples were carefully collected by puncture of the cisterna magna under anesthaesia. Immediately after CSF sampling, blood was taken by heart puncture and brains were dissected out. Blood was collected in EDTA-coated microvettes and plasma was prepared by centrifugation. Concentration of the test compounds in plasma, CSF or brain homogenate was determined using HPLC-MS-MS.

[2] = Plasma protein binding with equilibrium dialysis, human plasma; format: in vitro ADME; conditions: equilibrium dialysis 2 hours 37° C.; for fraction unbound at 2 h, 1 µM: human, pooled human plasma (with NaEDTA), pH 7.4, human plasma, read-out: PPB HUM % BINDING (converted); for PPB HUM % BINDING: human plasma, 1.0 μM
Description: (§6) Plasma Protein Binding (Determination of Human and Rat Plasma Protein Binding with Equilibrium Dialysis)
(§7) This equilibrium dialysis (ED) technique is used to determine the approximate in vitro fractional binding of test compounds to human and rat plasma proteins.
(§8) Dianorm Teflon dialysis cells (micro 0.2) are used. Each cell consists of a donor and an acceptor chamber, separated by an ultrathin semipermeable membrane with a 5 kDa molecular weight cutoff.
(§9) Stock solutions for each test compound are prepared in DMSO at 1 mM and diluted to a final concentration of 1.0 μM. The subsequent dialysis solutions are prepared in pooled human and rat plasma (with NaEDTA)
(§10) Aliquots of 200 μL dialysis buffer (100 mM potassium phosphate, pH 7.4) are dispensed into the buffer chamber. Aliquots of 200 μL test compound dialysis solution are dispensed into the plasma chambers. Incubation is carried out for 2 hours under rotation at 37° C.
(§11) At the end of the dialysis period, the dialysate is transferred into reaction tubes. The tubes for the buffer fraction contain 0.2 ml Acetonitril/water (80/20). Aliquots of 25 μl of the plasma dialysate are transferred into deep well plates and mixed with 25 μl Acetonitril/water (80/20), 25 μl buffer, 25 μl calibration solution and 25 μl Internal Standard solution. Protein precipitation is done by adding 200 μl Acetonitrile. Aliquots of 50 μl of the buffer dialysate are transferred into deep well plates and mixed with 25 μl blank plasma, 25 μl Internal Standard solution and 200 μl Acetonitril. Samples are measured on HPLC-MS/MS-Systems and evaluated with Analyst-Software.
(§12) Percent bound is calculated with the formula: % bound=(plasma concentration−buffer concentration/plasma concentration)×100 and % free is calculated as difference.

[3] = Plasma protein binding with equilibrium dialysis, rat plasma; format: in vitro ADME; conditions: rat, pooled rat plasma (with NaEDTA), pH 7.4, rat plasma, equilibrium dialysis 2 hours 37° C., read-out: PPB RAT % BINDING (converted)
Description: as §6, §7, §8, §9, §10, §11, §12

[4] = Metabolic stability in pooled human liver microsomes; format: in vitro ADME; conditions: 1 mg/mL protein, 1 μM compound, 37° C.; for half-life at 1 µM: human, pooled human liver microsomes, pH 7.6, human liver microsomes, read-out: Half-life t½ human; for Half-life t½ human: human liver microsomes
Experimental: The metabolic degradation of the test compound was assayed at 37° C. with pooled liver microsomes from various species. The final incubation volume of 100 μl per time point contains TRIS buffer pH 7.6 at room temperature (0.1 M), magnesium chloride (5 mM), microsomal protein (1 mg/mL for human and dog, 0.5 mg/mL for other species) and the test compound at a final concentration of 1 μM. Following a short preincubation period at 37° C., the reactions were initiated by addition of betanicotinamide adenine dinucleotide phosphate, reduced form (NADPH, 1 mM), and terminated by transferring an aliquot into solvent after different time points. […] The half-life was determined by the slope of the semi-logarithmic plot of the concentration-time profile.

[5] = system: MDCK-MDR1 cell monolayers; assay: Assessment of efflux in MDCK cells transfected with the human MDR1 gene (MDCK assay); format: in vitro ADME, canine; conditions: for efflux ratio: MDCK-MDR1, Papp (b-a) divided by Papp (a-b); for Papp (a-b) mean: MDCK-MDR1, apical-to-basal, pH 7.4, 37° C.
Experimental: Assessment of Efflux in Madin-Darby Canine Kidney Cells Transfected with the Human MDR1 Gene (MDCK Assay)
Apparent permeability coefficients (PE) of the compounds across the MDCK-MDR1 cell monolayers are measured (pH 7.4, 37° C.) in apical-to-basal (AB) and basal-to-apical (BA) transport direction. AB permeability (PEAB) represents drug absorption from the blood into the brain and BA permeability (PEBA) drug efflux from the brain back into the blood via both passive permeability as well as active transport mechanisms mediated by efflux and uptake transporters that are expressed on the MDCK-MDR1 cells, predominantly by the overexpressed human MDR1 P-gp. The compounds are assigned to permeability/absorption classes by comparison of the AB permeabilities with the AB permeabilities of reference compounds with known in vitro permeability and oral absorption in the human. Identical or similar permeabilities in both transport directions indicate passive permeation, vectorial permeability points to additional active transport mechanisms. Higher PEBA than PEAB indicates the involvement of active efflux mediated by MDR1 P-gp. Active transport is concentration-dependently saturable.
MDCK-MDR1 cells (1-2×10e5 cells/1 cm2 area) are seeded on filter inserts (Costar transwell polycarbonate or PET filters, 0.4 μm pore size) and cultured (DMEM) for 7 days. Subsequently, the MDR1 expression is boosted by culturing the cells with 5 mM sodium butyrate in full medium for 2 days. Compounds are dissolved in appropriate solvent (like DMSO, 1-20 mM stock solutions). […] The transport solution (TL) is applied to the apical or basolateral donor side for measuring A-B or B-A permeability (3 filter replicates), respectively. The receiver side contains the same buffer as the donor side. Samples are collected at the start and end of experiment from the donor and at various time intervals for up to 2 hours also from the receiver side for concentration measurement by HPLC-MS/MS or scintillation counting. Sampled receiver volumes are replaced with fresh receiver solution. Efflux ratio is calculated dividing the Papp (b-a) values by the Papp (a-b) values.

[6] = brain homogenate, read-out: conc brain
[7] = brain, read-out: c(brain)/c(plasma)

Compound: Cc1nn2cc(C3CC3)cnc2c1C(=O)NC1(c2ccc(C(F)(F)F)nc2)CCOCC1 [Example 25]
- IC50 (PDE 2A): 88 nM
- IC50 (PDE10): 9070 nM
- concentration at 0.5 h [1, 6]: 957 nM
- Kp at 0.5 h [1, 7]: 0.92
- concentration at 0.5 h ([1]; plasma, read-out: conc plasma): 1040 nM
- concentration at 0.5 h ([1]; read-out: conc CSF): 111 nM
- Kp at 0.5 h ([1]; read-out: c(CSF)/c(plasma)): 0.12
- fraction unbound at 2 h, 1 µM [2]: 0.246
- fraction unbound at 2 h, 1 µM [3]: 0.169
- half-life at 1 µM [4]: > 2.17 h

Compound: O=C(NC1(c2ccc(C(F)(F)F)cc2F)COCC1O)c1cnn2cc(C3CC3)cnc12 (single isomer, unassigned) [Example 71]
- IC50 (PDE 2A): 13 nM
- IC50 (PDE10): > 10000 nM
- PPB HUM % BINDING [2]: 81.1%
- efflux ratio [5]: 1.9
- Papp (a-b) mean [5]: 23 10-6 cm/s
- Half-life t½ human [4]: >2.17 h

Compound: O=C(NC1(c2ccc(C(F)(F)F)cc2)CCOC1)c1cnn2cc(C3CC3)cnc12 (racemic) [Example 37]
- IC50 (PDE 2A): 192 nM
- IC50 (PDE10): > 10000 nM
- fraction unbound at 2 h, 1 µM [2]: 0.056
- fraction unbound at 2 h, 1 µM [3]: 0.065
- half-life at 1 µM [4]: > 2.17 h

Compound: O=C(NC1(c2ccc(C(F)(F)F)cc2F)COCC1O)c1cnn2cc(C3CC3)cnc12 (single isomer, unassigned) [Example 70]
- IC50 (PDE 2A): 1250 nM
- IC50 (PDE10): > 10000 nM
- PPB HUM % BINDING [2]: 79.4%
- efflux ratio [5]: 2.1
- Papp (a-b) mean [5]: 20 10-6 cm/s
- Half-life t½ human [4]: 1.05 h

Compound: Cc1nn2cc(C3CC3)cnc2c1C(=O)NC1(c2ccc(C(F)(F)F)cn2)CCOCC1 [Example 21]
- IC50 (PDE 2A): 74 nM
- IC50 (PDE10): > 10000 nM
- concentration at 0.5 h [1, 6]: 1320 nM
- Kp at 0.5 h [1, 7]: 1.17
- concentration at 0.5 h ([1]; plasma, read-out: conc plasma): 1210 nM
- concentration at 0.5 h ([1]; read-out: conc CSF): 106 nM
- Kp at 0.5 h ([1]; read-out: c(CSF)/c(plasma)): 0.09
- fraction unbound at 2 h, 1 µM [2]: 0.162
- fraction unbound at 2 h, 1 µM [3]: 0.128
- half-life at 1 µM [4]: > 2.17 h

Compound: Cc1nn2cc(C3CC3)cnc2c1C(=O)NC1(c2ncc(C(F)(F)F)cc2F)CCOCC1 [Example 17]
- IC50 (PDE 2A): 39 nM
- IC50 (PDE10): 6940 nM
- fraction unbound at 2 h, 1 µM [2]: 0.086
- fraction unbound at 2 h, 1 µM [3]: 0.093
- half-life at 1 µM [4]: > 2.17 h

The next lines start with the values.

- IC50 (PDE10): > 10000 nM
- concentration at 0.5 h [1, 6]: 1070 nM
- concentration at 0.5 h ([1]; plasma, read-out: conc plasma): 2460 nM
- concentration at 0.5 h ([1]; read-out: conc CSF): 261 nM
- fraction unbound at 2 h, 1 µM [2]: 0.37
- fraction unbound at 2 h, 1 µM [3]: 0.257
- half-life at 1 µM [4]: > 2.17 h
Compound: Cc1cnc2c(C(=O)NC3(c4ccc(C(F)(F)F)cc4F)CCOCC3O)cnn2c1 (single isomer, unassigned) [Example 81a]

- Papp (a-b) mean [5]: 31 10-6 cm/s
Compound: Cc1cnc2c(C(=O)NC3(c4ccc(C(F)(F)F)cc4F)CCOCC3(C)O)cnn2c1 (single isomer, unassigned) [Example 84a]

- Papp (a-b) mean [5]: 23 10-6 cm/s
Compound: Cc1cnc2c(C(=O)NC3(c4ccc(C(F)(F)F)cc4F)CCOCC3(C)O)cnn2c1 (single isomer, unassigned) [Example 84b]

- concentration at 0.5 h [1, 6]: 449 nM
- concentration at 0.5 h ([1]; plasma, read-out: conc plasma): 794 nM
- concentration at 0.5 h ([1]; read-out: conc CSF): 61 nM
- fraction unbound at 2 h, 1 µM [2]: 0.156
- fraction unbound at 2 h, 1 µM [3]: 0.178
- half-life at 1 µM [4]: > 2.17 h
Compound: Cc1cnc2c(C(=O)NC3(c4ccc(C(F)(F)F)cc4F)CCOCC3(C)O)cnn2c1 (single isomer, unassigned) [Example 83a]

- IC50 (PDE 2A): 1.2 nM
- IC50 (PDE10): > 10000 nM
- concentration at 0.5 h [1, 6]: 1180 nM
- Kp at 0.5 h [1, 7]: 0.36
- concentration at 0.5 h ([1]; plasma, read-out: conc plasma): 3320 nM
- concentration at 0.5 h ([1]; read-out: conc CSF): 157 nM
- Kp at 0.5 h ([1]; read-out: c(CSF)/c(plasma)): 0.05
- fraction unbound at 2 h, 1 µM [2]: 0.213
- fraction unbound at 2 h, 1 µM [3]: 0.135
- half-life at 1 µM [4]: > 2.17 h
Compound: O=C(NC1(c2ccc(C(F)(F)F)cc2F)CCOCC1O)c1cnn2cc(C3CC3)cnc12 (single isomer, unassigned) [Example 82a]
